Test results published in US10532106B2 (priority 2014, dated 2020).
Read-outs that look alike come from different tables or passages of the source. Numbered stars: 1 amine (or outer) side, 2 acyl side, 3 side chain; on linkers, the order of the positions; unused ones are H or OH. Bridge positions count the residues as written; N and C are the ends. Square brackets hold non-standard residues; d marks the D form. Peptide text beside a SMILES is read from it. * marks the point of attachment. DOTA = O=C(O)CN1CCN(CC(=O)O)CCN(CC(=O)*)CCN(CC(=O)O)CC1; Phe(F5) = N[C@@H](Cc1c(F)c(F)c(F)c(F)c1F)C(=O)O; Phe(4-Br) = N[C@@H](Cc1ccc(Br)cc1)C(=O)O; 1Nal = N[C@@H](Cc1cccc2ccccc12)C(=O)O; TBMB = c1c(C[*:1])cc(C[*:3])cc1C[*:2]; Phg = N[C@H](C(=O)O)c1ccccc1; Tle = CC(C)(C)[C@H](N)C(=O)O; Sar = CNCC(=O)O

Molecular target: T1, MT1-MMP hemopexin domain (Homo sapiens, UniProt P50281)
T1 construct: residues Cys319-Gly511 from the human gene; His6 (N); made in house; host or cells: HEK293 (transient), pEXPR-IBA42 vector
Test: Competition assay using fluorescence polarisation
Format: binding
Settings: for Kd: read-out: Kd
Source text: Here, a pre-formed complex of PEX with the fluorescent PEX-binding tracer is titrated with free, non-fluoresceinated bicyclic peptide. Since all 17-69-based peptides are expected to bind at the same site, the titrant will displace the fluorescent tracer from PEX. Dissociation of the complex can be measured quantitatively, and the Kd of the competitor (titrant) to the target protein determined. The advantage of the competition method is that the affinities of non-fluoresceinated bicyclic peptides can be determined accurately and rapidly.
Subsequently, the non-fluorescent competitor bicyclic peptide (usually just the bicycle core sequence) is titrated, such that it displaces the fluorescent tracer from the target protein. The displacement of the tracer is measured and associated with a drop in fluorescence polarisation. The drop in fluorescence polarisation is proportional to the fraction of target protein bound with the non-fluorescent titrant, and thus is a measure of the affinity of titrant to target protein.
The raw data is fit to the analytical solution of the cubic equation that describes the equilibria between fluorescent tracer, titrant, and binding protein. The fit requires the value of the affinity of fluorescent tracer to the target protein, which can be determined separately by direct binding FP experiments (see previous section).

[1] = Table 8, substitutions at position 4

For `CC[C@H](C)[C@@H]1NC(=O)[C@H](CC(=O)O)NC(=O)[C@H](Cc2ccc(O)cc2)NC(=O)[C@H](Cc2ccccc2)NC(=O)[C@H](CC(=O)O)NC(=O)[C@H](CCC(=O)O)NC(=O)[C@@H]2CSCc3cc(cc(c3)CSC[C@H](NC(C)=O)C(=O)N[C@@H](Cc3ccc(O)cc3)C(=O)N[C@@H](CC(N)=O)C(=O)N[C@@H](CCC(=O)O)C(=O)N[C@@H](C(C)(C)C)C(=O)NCC(=O)N2)CSC[C@@H](C(N)=O)NC1=O` [17-69-07-N072, Ac-(17-69-07) tBuGly4] (Ac-CYNE[Tle]GCEDFYDIC-NH2; linker 1-7-14 via TBMB), the Kd [1] was over 5000 nM.

Work on `C[C@H](NC(=O)CN(C)C(=O)CN(C)C(=O)CN(C)C(=O)CN(C)C(=O)CN(C)C(=O)CN(C)C(=O)CN(C)C(=O)CN(C)C(=O)CN(C)C(=O)CN(C)C(=O)CN)C(=O)N[C@H]1CSCc2cc3cc(c2)CSC[C@H](NC(=O)[C@@H](C)NC(=O)[C@H](Cc2cccc4ccccc24)NC(=O)[C@H](CCC(=O)O)NC(=O)[C@H](CC(N)=O)NC(=O)[C@@H](C)NC1=O)C(=O)N[C@@H](CCC(=O)O)C(=O)N[C@@H](CC(=O)O)C(=O)N[C@@H](Cc1ccccc1)C(=O)N[C@@H](Cc1ccc(O)cc1)C(=O)N[C@@H](CC(=O)O)C(=O)N[C@@H](C(C)(C)C)C(=O)N[C@H](C(N)=O)CSC3` [17-69-07-N231, G-Sar10-A-(17-69-07) D-Ala1 1Nal4 D-Ala5 tBuGly11] (H-G[Sar][Sar][Sar][Sar][Sar][Sar][Sar][Sar][Sar][Sar]AC[dA]NE[1Nal][dA]CEDFYD[Tle]C-NH2; linker 13-19-26 via TBMB) yielded a Kd (Table 12, molecules selected for plasma stability assessment) of 1.07 ± 0.28 nM.

With `CC(=O)N[C@H]1CSCc2cc3cc(c2)CSC[C@H](NC(=O)[C@@H](C)NC(=O)[C@H](Cc2cccc4ccccc24)NC(=O)[C@H](CCC(=O)O)NC(=O)[C@H](CC(N)=O)NC(=O)[C@@H](C)NC1=O)C(=O)N[C@@H](CCC(=O)O)C(=O)N[C@@H](CC(=O)O)C(=O)N[C@@H](Cc1ccccc1)C(=O)N[C@@H](Cc1ccc(Br)cc1)C(=O)N[C@@H](CC(=O)O)C(=O)N[C@@H](C(C)(C)C)C(=O)N[C@H](C(N)=O)CSC3` [17-69-07-N252, Ac-(17-69-07) D-Ala1 1Nal4 D-Ala5 4BrPhe9 tBuGly11] (Ac-C[dA]NE[1Nal][dA]CEDF[Phe(4-Br)]D[Tle]C-NH2; linker 1-7-14 via TBMB) the “potency / activity toward MT1-MMP, in words” value was “potency which is superior to wildtype” and the Kd (Table 10, multi-substitution) was 0.8 ± 0.39 nM.

`CC[C@H](C)[C@@H]1NC(=O)[C@H](CC(=O)O)NC(=O)[C@H](Cc2ccc(O)cc2)NC(=O)[C@H](Cc2ccccc2)NC(=O)[C@H](CC(=O)O)NC(=O)[C@H](CCC(=O)O)NC(=O)[C@@H]2CSCc3cc(cc(c3)CSC[C@@H](C(=O)N[C@@H](C)C(N)=O)NC1=O)CSC[C@H](NC(=O)[C@H](C)N)C(=O)N[C@@H](CCSC)C(=O)N[C@@H](CC(N)=O)C(=O)N[C@@H](CCC(N)=O)C(=O)N[C@@H](Cc1ccccc1)C(=O)NCC(=O)N2` [17-69-12-N003, A-(17-69-12)-A] (H-ACMNQFGCEDFYDICA-NH2; linker 2-8-15 via TBMB) showed a Kd (Table 3, Competition, tracer A-(17-69-07)-A-Sar6-K(Fluorescein)) of 3.7 ± 2.52 nM.

Compound `CC[C@H](C)[C@@H]1NC(=O)[C@H](CC(=O)O)NC(=O)[C@H](Cc2ccc(O)cc2)NC(=O)[C@H](Cc2ccccc2)NC(=O)[C@H](CC(=O)O)NC(=O)[C@H](CCC(=O)O)NC(=O)[C@@H]2CSCc3cc(cc(c3)CSC[C@H](NC(C)=O)C(=O)N[C@@H](Cc3ccc(O)cc3)C(=O)N[C@@H](CC(N)=O)C(=O)N[C@@H](CCC(=O)O)C(=O)N[C@@H](c3ccccc3)C(=O)NCC(=O)N2)CSC[C@@H](C(N)=O)NC1=O` [17-69-07-N071, Ac-(17-69-07) Phg4] (Ac-CYNE[Phg]GCEDFYDIC-NH2; linker 1-7-14 via TBMB) has a Kd [1] of 628 nM.

In the case of `CC(=O)NCC(=O)N(C)CC(=O)N(C)CC(=O)N(C)CC(=O)N(C)CC(=O)N(C)CC(=O)N(C)CC(=O)N(C)CC(=O)N(C)CC(=O)N(C)CC(=O)N(C)CC(=O)N[C@@H](C)C(=O)N[C@H]1CSCc2cc3cc(c2)CSC[C@H](NC(=O)[C@@H](C)NC(=O)[C@H](Cc2cccc4ccccc24)NC(=O)[C@H](CCC(=O)O)NC(=O)[C@H](CC(N)=O)NC(=O)[C@@H](C)NC1=O)C(=O)N[C@@H](CCC(=O)O)C(=O)N[C@@H](CC(=O)O)C(=O)N[C@@H](Cc1ccccc1)C(=O)N[C@@H](Cc1ccc(O)cc1)C(=O)N[C@@H](CC(=O)O)C(=O)N[C@@H](C(C)(C)C)C(=O)N[C@H](C(N)=O)CSC3` [17-69-07-N239, Ac-G-Sar10-A-(17-69-07) D-Ala1 1Nal4 D-Ala5 tBuGly11] (Ac-G[Sar][Sar][Sar][Sar][Sar][Sar][Sar][Sar][Sar][Sar]AC[dA]NE[1Nal][dA]CEDFYD[Tle]C-NH2; linker 13-19-26 via TBMB), the “potency / activity toward MT1-MMP, in words” value is reported as “potency which is superior to wildtype” and the Kd (Table 11, G-Sar10-A addition) is reported as 0.94 ± 0.08 nM.

In the case of `C[C@H](NC(=O)CN1CCN(CC(=O)O)CCN(CC(=O)O)CCN(CC(=O)O)CC1)C(=O)N[C@H]1CSCc2cc3cc(c2)CSC[C@H](NC(=O)[C@@H](C)NC(=O)[C@H](Cc2cccc4ccccc24)NC(=O)[C@H](CCC(=O)O)NC(=O)[C@H](CC(N)=O)NC(=O)[C@@H](C)NC1=O)C(=O)N[C@@H](CCC(=O)O)C(=O)N[C@@H](CC(=O)O)C(=O)N[C@@H](Cc1ccccc1)C(=O)N[C@@H](Cc1ccc(Br)cc1)C(=O)N[C@@H](CC(=O)O)C(=O)N[C@@H](C(C)(C)C)C(=O)N[C@H](C(N)=O)CSC3` [17-69-07-N248, DOTA-A-(17-69-07) D-Ala1 1Nal4 D-Ala5 4BrPhe9 tBuGly11] ({DOTA}-AC[dA]NE[1Nal][dA]CEDF[Phe(4-Br)]D[Tle]C-NH2; linker 2-8-15 via TBMB), the “potency / activity toward MT1-MMP, in words” value is reported as “retained potency” and the Kd (Table 15, DOTA-linked peptides) is reported as 0.5 nM.

With `CC[C@@H](C)[C@H]1NC(=O)[C@@H](CC(=O)O)NC(=O)[C@@H](Cc2ccc(O)cc2)NC(=O)[C@@H](Cc2ccccc2)NC(=O)[C@@H](CC(=O)O)NC(=O)[C@@H](CCC(=O)O)NC(=O)[C@H]2CSCc3cc(cc(c3)CSC[C@@H](NC(=O)[C@@H](C)NC(=O)CN3CCN(CC(=O)O)CCN(CC(=O)O)CCN(CC(=O)O)CC3)C(=O)N[C@H](Cc3ccc(O)cc3)C(=O)N[C@H](CC(N)=O)C(=O)N[C@H](CCC(=O)O)C(=O)N[C@H](Cc3ccccc3)C(=O)NCC(=O)N2)CSC[C@H](C(N)=O)NC1=O` [17-69-07-N246, DOTA-A-(17-69-07) All D Amino Acids] the “potency / activity toward MT1-MMP, in words” value was “lacks any activity toward MT1-MMP” and the Kd (Table 15, DOTA-linked peptides) was over 5000 nM.

With `CC(=O)NCC(=O)N(C)CC(=O)N(C)CC(=O)N(C)CC(=O)N(C)CC(=O)N(C)CC(=O)N(C)CC(=O)N(C)CC(=O)N(C)CC(=O)N(C)CC(=O)N(C)CC(=O)N[C@@H](C)C(=O)N[C@H]1CSCc2cc3cc(c2)CSC[C@H](NC(=O)[C@@H](C)NC(=O)[C@H](Cc2cccc4ccccc24)NC(=O)[C@H](CCC(=O)O)NC(=O)[C@H](CC(N)=O)NC(=O)[C@@H](C)NC1=O)C(=O)N[C@@H](CCC(=O)O)C(=O)N[C@@H](CC(=O)O)C(=O)N[C@@H](Cc1ccccc1)C(=O)N[C@@H](Cc1ccc(Br)cc1)C(=O)N[C@@H](CC(=O)O)C(=O)N[C@@H](C(C)(C)C)C(=O)N[C@H](C(N)=O)CSC3` [17-69-07-N255, Ac-G-Sar10-A-(17-69-07) D-Ala1 1Nal4 D-Ala5 4BrPhe9 tBuGly11] (Ac-G[Sar][Sar][Sar][Sar][Sar][Sar][Sar][Sar][Sar][Sar]AC[dA]NE[1Nal][dA]CEDF[Phe(4-Br)]D[Tle]C-NH2; linker 13-19-26 via TBMB) the “potency / activity toward MT1-MMP, in words” value was “potency which is superior to wildtype” and the Kd (Table 11, G-Sar10-A addition) was 0.3 nM.

`CC[C@H](C)[C@@H]1NC(=O)[C@H](CC(=O)O)NC(=O)[C@H](Cc2ccc(O)cc2)NC(=O)[C@H](Cc2ccccc2)NC(=O)[C@H](CC(=O)O)NC(=O)[C@H](CCC(=O)O)NC(=O)[C@@H]2CSCc3cc(cc(c3)CSC[C@H](NC(=O)[C@H](C)NC(=O)CN(C)C(=O)CN(C)C(=O)CN(C)C(=O)CN(C)C(=O)CN(C)C(=O)CN(C)C(=O)CN(C)C(=O)CN(C)C(=O)CN(C)C(=O)CN(C)C(=O)CNC(C)=O)C(=O)N[C@@H](Cc3ccc(O)cc3)C(=O)N[C@@H](CC(N)=O)C(=O)N[C@@H](CCC(=O)O)C(=O)N[C@@H](Cc3ccccc3)C(=O)NCC(=O)N2)CSC[C@@H](C(N)=O)NC1=O` [17-69-07-N225, Ac-G-Sar10-A-(17-69-07)] (Ac-G[Sar][Sar][Sar][Sar][Sar][Sar][Sar][Sar][Sar][Sar]ACYNEFGCEDFYDIC-NH2; linker 13-19-26 via TBMB) was tested, and the Kd (Table 11, G-Sar10-A addition) was 0.95 ± 0.1 nM.

For `CC[C@H](C)[C@@H]1NC(=O)[C@H](CC(=O)O)NC(=O)[C@H](Cc2c(F)c(F)c(F)c(F)c2F)NC(=O)[C@H](Cc2ccccc2)NC(=O)[C@H](CC(=O)O)NC(=O)[C@H](CCC(=O)O)NC(=O)[C@@H]2CSCc3cc(cc(c3)CSC[C@H](NC(C)=O)C(=O)N[C@@H](Cc3ccc(O)cc3)C(=O)N[C@@H](CC(N)=O)C(=O)N[C@@H](CCC(=O)O)C(=O)N[C@@H](Cc3ccccc3)C(=O)NCC(=O)N2)CSC[C@@H](C(N)=O)NC1=O` [17-69-07-N182, Ac-(17-69-07) 5FPhe9] (Ac-CYNEFGCEDF[Phe(F5)]DIC-NH2; linker 1-7-14 via TBMB), the Kd (Table 9, tolerated substitutions at positions 9 and 11) was 13.1 nM.
